From patent publication US8329645B2, “Polymyxin derivatives and uses thereof” (priority 2008, dated 2012)

Key:
[1] = tested on: Ps. aeruginosa ATCC 27853; assay: Sensitization to rifampin: growth inhibition around wells on LB plates containing rifampin; type: cell-based, Pseudomonas aeruginosa; conditions: 4 μg
E. coli IH3080 [2] = assay: Growth inhibition around wells on LB agar plates; type: cell-based, Escherichia coli
Procedure, shortened: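 Growth inhibition of encapsulated E. coli IH3080 (K1:O018) was assessed on LB agar plates. A suspension of about 10^8 cells/ml in 0.9% NaCl, made from an overnight LB agar culture, was spread across the plate surface and the excess removed. After drying, 2 mm wells were drilled, with 0.9% NaCl as control. Following 18 h at 37° C., inhibition zone diameters around wells were converted to areas in square mm.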

E. coli = conditions: Sakura et al. (2004); cited from earlier work
[3] = tested on: Pseudomonas aeruginosa ATCC 27853; assay: Growth inhibition around wells on LB agar plates; type: cell-based; conditions: Ps. aeruginosa ATCC 27853
Procedure, shortened: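 Activity against Pseudomonas aeruginosa ATCC 27853 was assessed by agar well diffusion on LB plates. A suspension of about 10^8 cells/ml in 0.9% NaCl was spread over the agar and the excess removed. Once the surface had dried, 2 mm wells were drilled and filled with peptide dissolved in 0.9% NaCl. Plates were incubated 18 h at 37° C, and inhibition zone diameters were converted to areas in square mm.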

E. coli IH3080 [4] = assay: Sensitization to rifampin: growth inhibition around wells on LB plates containing rifampin; type: cell-based, Escherichia coli; conditions: 4 μg of compound

octanoyl polymyxin B heptapeptide [Octanoyl PMBH, reference compound]
growth inhibition around a well in the presence of rifampin ([1]; rifampin 0 μg/ml): 0 square millimeters
growth inhibition around a well in the presence of rifampin ([1]; rifampin 0.1 μg/ml): 13 square millimeters
growth inhibition around a well in the presence of rifampin ([1]; rifampin 0.3 μg/ml): 13 square millimeters
growth inhibition around a well (E. coli IH3080 [2]; 4 μg of compound per well): 0 square millimeters
growth inhibition around a well (E. coli IH3080 [2]; 10 μg of compound per well): 0 square millimeters
concentration needed to inhibit the growth of bacteria (E. coli): 128 µg/mL
growth inhibition around a well ([3]; 4 μg): 0 square millimeters
growth inhibition around a well ([3]; 10 μg): 13 square millimeters
growth inhibition around a well in the presence of rifampin (E. coli IH3080 [4]; rifampin 0 μg/ml): 0 square millimeters
growth inhibition around a well in the presence of rifampin (E. coli IH3080 [4]; rifampin 0.1 μg/ml): 0 square millimeters
growth inhibition around a well in the presence of rifampin (E. coli IH3080 [4]; rifampin 1.0 μg/ml): 38 square millimeters
